Laboratory results: publication PMC9945734 (BMC Medicine, 2023)
Values joined by “and” are separate entries in the source; they are usually repeats but may differ in a detail not shown here. Equal entries are not always repeated.

Test system: PC-3-KQ and PC-3-KR cells
Test: RNA-sequencing and differential gene expression
Assay type: cell-based, human
Set-up: CEP19 tpm_KQ_NTZ / CCNA1 tpm_KQ_NTZ / BTN3A3 tpm_KQ_NTZ / CAPSL tpm_KQ_NTZ / CELF3 tpm_KQ_NTZ / C5orf63 tpm_KQ_NTZ / tpm MSMP / tpm MYH7B / tpm CACNG8 / CNTNAP3B tpm_KQ_NTZ / IL21R tpm_KQ_NTZ / CYP8B1 tpm_KQ_NTZ / C2orf78 tpm_KQ_NTZ / CALB1 tpm_KQ_NTZ / COL4A3 tpm_KQ_NTZ / CFB tpm_KQ_NTZ / PFKFB1 tpm_KQ_NTZ / BTBD11 tpm_KQ_NTZ: scale not given here
[1] = PC-3-KQ cells with NTZ, RNA-Seq, replicates 1-3, listed as NTZ

**Q.** Which results are given for `CC(=O)Oc1ccccc1C(=O)Nc1ncc([N+](=O)[O-])s1` [Nitazoxanide]?
**A.** reversed genes that were downregulated by KLF5^K369Q (5 μM, 48 h): 114 genes; reversed genes that were upregulated by KLF5^K369Q (5 μM, 48 h): 127 genes; differentially expressed genes whose KLF5^K369Q-modulated expression patterns were reversed (5 μM, 48 h, of 2836 differentially expressed genes): 241 genes; BTBD11 tpm_KQ_NTZ [1]: 0.02343 (2×) and -0.3135; BTN3A3 tpm_KQ_NTZ [1]: 0.1048 and 0.06849 and 0.4183; C2orf78 tpm_KQ_NTZ [1]: -0.1653 (2×) and -0.2557; C5orf63 tpm_KQ_NTZ [1]: -1.246 and -0.6828 (2×); CALB1 tpm_KQ_NTZ [1]: -0.5505 and -0.5318 and -0.6014; CAPSL tpm_KQ_NTZ [1]: 0.1399 and 0.07957 and 0.02817; CCNA1 tpm_KQ_NTZ [1]: 0.2896 and 0.0474 and -0.0329; CELF3 tpm_KQ_NTZ [1]: -0.6626 and -0.09641 and -1.398; CEP19 tpm_KQ_NTZ [1]: -0.2178 and -0.1674 and -0.2603; CFB tpm_KQ_NTZ [1]: 1.072 and 0.8732 and 1.006; CNTNAP3B tpm_KQ_NTZ [1]: -1.003 and -0.7486 and -1.333; COL4A3 tpm_KQ_NTZ [1]: 0.8606 and -0.008515 and 0.09381; CSF1R tpm_KQ_NTZ [1]: -0.4278 and 0.5782 and -0.287; CSF3 tpm_KQ_NTZ [1]: -0.1666 and -0.05545 and -0.03443; CYP8B1 tpm_KQ_NTZ [1]: 0.5351 and -0.06455 and 0.239; CYSTM1 tpm_KQ_NTZ [1]: 0.5286 and 0.6762 and 0.7083; DEPTOR tpm_KQ_NTZ [1]: -0.1625 and 0.109 and -0.5598; DISP1 tpm_KQ_NTZ [1]: 0.9822 and -0.1345 and 0.01324; DMC1 tpm_KQ_NTZ [1]: 0.2859 and -0.2731 and -0.5992; EFCAB6 tpm_KQ_NTZ [1]: -0.1794 and -0.1071 (2×); ESPN tpm_KQ_NTZ [1]: 0.1813 and 0.02389 and 0.09131; FA2H tpm_KQ_NTZ [1]: 0.4488 and 0.5616 and 0.5267; FAM43A tpm_KQ_NTZ [1]: 0.03072 and -0.121 and -0.09259; FAM83D tpm_KQ_NTZ [1]: -0.5519 and -0.6015 and -0.7989; FAM178B tpm_KQ_NTZ [1]: 0.08123 and 0.3901 and 0.3146; FANCI tpm_KQ_NTZ [1]: -0.4967 and -0.5797 and -1.118; FANCL tpm_KQ_NTZ [1]: -0.04507 and -0.1672 and -0.6878; FIBCD1 tpm_KQ_NTZ [1]: 0.8945 (2×) and 0.4936; FLI1 tpm_KQ_NTZ [1]: 0.163 and 0.09153 and 0.3476; FLRT1 tpm_KQ_NTZ [1]: 0.02501 and 0.1658 and 0.1094; FOXI1 tpm_KQ_NTZ [1]: -0.2315 and -0.3686 and -0.4151; FOXP3 tpm_KQ_NTZ [1]: -0.3022 and -0.9252 and -0.8607; FRY tpm_KQ_NTZ [1]: 0.3424 and 1.196 and 0.3898; FUT3 tpm_KQ_NTZ [1]: 0.2065 and 0.1078 and 0.1213; FZD4 tpm_KQ_NTZ [1]: -0.8248 and -0.9863 and -1.191; GBX2 tpm_KQ_NTZ [1]: 0.2922 and 0.1832 and -0.01058; GCNT3 tpm_KQ_NTZ [1]: 0.5624 and 1.46 and 1.425; GDPD3 tpm_KQ_NTZ [1]: 0.1549 and 0.8212 and 1.086; GPR19 tpm_KQ_NTZ [1]: -0.4052 and -1.088 and -0.1444; H3C1 tpm_KQ_NTZ [1]: -0.4909 and -0.7381 and -0.1713; HAS3 tpm_KQ_NTZ [1]: -0.7244 and -1.045 and -1.209; HSD3B1 tpm_KQ_NTZ [1]: 0.4147 and -0.0829 and 0.06266; HSPB8 tpm_KQ_NTZ [1]: 1.202 and 1.163 and 1.373; IFITM10 tpm_KQ_NTZ [1]: 0.594 and 0.6249 and 1.26; IGF2BP1 tpm_KQ_NTZ [1]: -0.6156 and 0.2139 and -0.1353; IGFBP4 tpm_KQ_NTZ [1]: -0.9714 and -1.052 and -1.107; IGSF23 tpm_KQ_NTZ [1]: 0.2138 and -0.14 and 0.153; IL1RN tpm_KQ_NTZ [1]: 0.4172 and 0.5103 and 0.3837; IL21R tpm_KQ_NTZ [1]: 0.1341 and 0.3531 and -0.6262; IL32 tpm_KQ_NTZ [1]: 0.1915 and 0.128 and 0.2784; IL36RN tpm_KQ_NTZ [1]: 0.2015 and -0.02405 and -0.08881; KDELR2 tpm_KQ_NTZ [1]: 0.386 and 0.3336 and 0.3028; KIAA0319 tpm_KQ_NTZ [1]: 0.8897 and 0.7646 and 0.5228; KLK9 tpm_KQ_NTZ [1]: -0.2259 and -0.6416 and -0.6693; KRT17 tpm_KQ_NTZ [1]: -0.1797 and -0.2377 and -0.2552; LGALS12 tpm_KQ_NTZ [1]: -0.7737 and -0.7092 and -1.317; LILRB3 tpm_KQ_NTZ [1]: -0.849 and 0.2071 and -0.3616; LOC105373989 tpm_KQ_NTZ [1]: 0.1747 and 0.1405 and -0.01628; LOC107985532 tpm_KQ_NTZ [1]: -0.4716 and -1.399 and -0.5849; LRRK1 tpm_KQ_NTZ [1]: 0.2201 and 0.2241 and -0.1686; LTB tpm_KQ_NTZ [1]: 0.298 and 0.1911 and 0.1215; LY6K tpm_KQ_NTZ [1]: 0.361 and 0.2663 and 0.3215; MAP2 tpm_KQ_NTZ [1]: 1.038 and 0.7956 and 0.3906; MCM4 tpm_KQ_NTZ [1]: -0.8715 and -0.9161 and -1.036; METRNL tpm_KQ_NTZ [1]: -0.141 and -0.421 and -0.3102; MFSD2A tpm_KQ_NTZ [1]: 0.8546 and 0.3607 and 0.5375; MMP9 tpm_KQ_NTZ [1]: 0.4129 and 0.2062 and 0.3482; MNX1 tpm_KQ_NTZ [1]: 0.2275 and -0.9 and 0.1118; MROH8 tpm_KQ_NTZ [1]: -1.87 and -0.2315 and 0.3664; MVP tpm_KQ_NTZ [1]: 0.5977 and 0.4827 and 0.3544; MYBL2 tpm_KQ_NTZ [1]: -0.1727 and -0.165 and -0.155; NAV1 tpm_KQ_NTZ [1]: 0.9647 (2×) and 0.5494; NECTIN4 tpm_KQ_NTZ [1]: 1.229 and 1.239 and 1.198; NKD1 tpm_KQ_NTZ [1]: 0.09084 and 0.3652 and -0.1886; NLRC5 tpm_KQ_NTZ [1]: 0.9096 and 0.9955 and 0.3927; NR4A2 tpm_KQ_NTZ [1]: -0.3921 and 0.001744 and -0.3514; NRK tpm_KQ_NTZ [1]: -0.02829 and -0.09407 and -0.0544
